Like-named read-outs stand apart in the source and are kept apart here.
Key:
Assay type in all cases: in vivo
[1] = test system: wild oat (Avena fatua); assay: Test B postemergence; conditions: Avena fatua, post-emergence
How it was run: (§1)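 Compounds in non-phytotoxic solvent with surfactant applied preemergence to planted seeds or postemergence to plants 2 to 18 cm tall (1- to 4-leaf stage). Greenhouse 13 to 15 days, then visual rating against controls on a 0 to 100 scale (100 = complete control).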

[2] = test system: blackgrass (Alopecurus myosuroides); assay: Test B postemergence; conditions: Alopecurus myosuroides, post-emergence
How it was run: as §1

[3] = test system: umbrella sedge (Cyperus difformis); assay: Test B flooded paddy test; conditions: Cyperus difformis, Flood, 1000 g ai/ha; scale 0 to 100; read-out: Plant response rating, Sedge, Umbrella
How it was run: (§2)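 Plants were grown to the 2-leaf stage before treatment, then kept in a greenhouse for 13 to 15 days. Injury was rated visually against untreated controls on a 0 to 100 scale, where 0 is no effect and 100 is complete control.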

[4] = test system: barnyardgrass (Echinochloa crus-galli); assay: Test B flooded paddy test; conditions: Echinochloa crus-galli, Flood, 1000 g ai/ha; scale 0 (no effect) to 100 (complete control); read-out: Plant response rating, Barnyardgrass
How it was run: as §2

[5] = test system: duck salad (Heteranthera limosa); assay: Test B flooded paddy test; conditions: Heteranthera limosa, Flood, 1000 g ai/ha; scale 0 to 100; read-out: Plant response rating, Ducksalad
How it was run: as §2

[6] = test system: rice (Oryza sativa); assay: Test B flooded paddy test; conditions: Oryza sativa, Flood, 1000 g ai/ha; scale 0 to 100; read-out: Plant response rating, Rice
How it was run: as §2

[7] = test system: velvetleaf (Abutilon theophrasti); assay: Test B pre/postemergence; conditions: Abutilon theophrasti; for pest or weed control at 125 g/ha: 125 g ai/ha; for pest or weed control at 500 g/ha: 500 g ai/ha
How it was run: as §1

[8] = test system: wheat (Triticum aestivum); assay: Test B pre/postemergence; conditions: Triticum aestivum; for plant injury at 125 g/ha: 125 g ai/ha; for plant injury at 500 g/ha: 500 g ai/ha
How it was run: as §1

[9] = test system: pigweed (Amaranthus retroflexus); assay: Test B pre/postemergence; conditions: Amaranthus retroflexus; for pest or weed control at 125 g/ha: 125 g ai/ha; for pest or weed control at 500 g/ha: 500 g ai/ha
How it was run: as §1

[10] = test system: barnyardgrass (Echinochloa crus-galli); assay: Test B pre/postemergence; conditions: Echinochloa crus-galli; for pest or weed control at 125 g/ha: 125 g ai/ha; for pest or weed control at 500 g/ha: 500 g ai/ha
How it was run: as §1

[11] = test system: morningglory (Ipomoea coccinea); assay: Test B pre/postemergence; conditions: Ipomoea; for pest or weed control at 125 g/ha: 125 g ai/ha; for pest or weed control at 500 g/ha: 500 g ai/ha
How it was run: as §1

[12] = test system: crabgrass (Digitaria sanguinalis); assay: Test B pre/postemergence; conditions: Digitaria sanguinalis; for pest or weed control at 125 g/ha: 125 g ai/ha; for pest or weed control at 500 g/ha: 500 g ai/ha
How it was run: as §1

[13] = test system: corn (Zea mays); assay: Test B pre/postemergence; conditions: Zea mays
How it was run: as §1

[14] = test system: giant foxtail (Setaria faberii); assay: Test B pre/postemergence; conditions: Setaria faberi; for pest or weed control at 125 g/ha: 125 g ai/ha; for pest or weed control at 500 g/ha: 500 g ai/ha
How it was run: as §1

[15] = test system: Surinam grass (Brachiaria decumbens); assay: Test B pre/postemergence; conditions: Urochloa decumbens; for pest or weed control at 125 g/ha: 125 g ai/ha; for pest or weed control at 500 g/ha: 500 g ai/ha
How it was run: as §1

[16] = test system: lambsquarters (Chenopodium album); assay: Test B pre/postemergence; conditions: Chenopodium album; for pest or weed control at 125 g/ha: 125 g ai/ha; for pest or weed control at 500 g/ha: 500 g ai/ha
How it was run: as §1

[17] = test system: cocklebur (Xanthium strumarium); assay: Test B pre/postemergence; conditions: Xanthium strumarium; for pest or weed control at 125 g/ha: 125 g ai/ha; for pest or weed control at 500 g/ha: 500 g ai/ha
How it was run: as §1

COC(=O)c1nc(-c2ccccc2)nc(N)c1Br [Compound 23]
80%: pest or weed control at 500 g/ha ([16]; post-emergence, Postemergence, scale 0 to 100, read-out: Plant response rating, Lambsquarters)
0%: pest or weed control at 125 g/ha ([2]; 125 g ai/ha, scale 0 to 100 (0 no effect, 100 complete control), read-out: Blackgrass plant response rating) | pest or weed control at 1000 g/ha [3] | pest or weed control at 1000 g/ha [4] | plant injury at 1000 g/ha [6] | pest or weed control at 125 g/ha ([7]; pre-emergence, Preemergence, scale 0 to 100 (0 no effect, 100 complete control), read-out: Plant response rating, Velvetleaf) | plant injury at 125 g/ha ([8]; post-emergence, Postemergence, scale 0 to 100 (0 no effect, 100 complete control), read-out: Wheat plant response rating) | plant injury at 125 g/ha ([8]; pre-emergence, Preemergence, scale 0 to 100 (0 no effect, 100 complete control), read-out: Plant response rating, Wheat) | plant injury at 500 g/ha ([8]; pre-emergence, Preemergence, scale 0 to 100 (0 no effect, 100 complete control), read-out: Wheat plant response rating) | pest or weed control at 125 g/ha ([9]; pre-emergence, Preemergence, scale 0 to 100 (0 no effect, 100 complete control), read-out: Plant response rating, Pigweed) | pest or weed control at 125 g/ha ([10]; post-emergence, Postemergence, scale 0 to 100 (0 no effect, 100 complete control), read-out: Barnyardgrass plant response rating) | pest or weed control at 500 g/ha ([10]; post-emergence, Postemergence, scale 0 to 100, read-out: Plant response rating, Barnyardgrass) | pest or weed control at 125 g/ha ([10]; pre-emergence, Preemergence, scale 0 to 100 (0 no effect, 100 complete control), read-out: Plant response rating, Barnyardgrass) | pest or weed control at 500 g/ha ([10]; pre-emergence, Preemergence, scale 0 to 100 (0 no effect, 100 complete control), read-out: Barnyardgrass plant response rating) | pest or weed control at 125 g/ha ([11]; pre-emergence, Preemergence, scale 0 to 100 (0 no effect, 100 complete control), read-out: Plant response rating, Morningglory) | pest or weed control at 125 g/ha ([12]; post-emergence, Postemergence, scale 0 to 100 (0 no effect, 100 complete control), read-out: Crabgrass plant response rating) | pest or weed control at 500 g/ha ([12]; post-emergence, Postemergence, scale 0 to 100, read-out: Plant response rating, Crabgrass) | pest or weed control at 125 g/ha ([12]; pre-emergence, Preemergence, scale 0 to 100 (0 no effect, 100 complete control), read-out: Plant response rating, Crabgrass) | pest or weed control at 500 g/ha ([12]; pre-emergence, Preemergence, scale 0 to 100 (0 no effect, 100 complete control), read-out: Crabgrass plant response rating) | plant injury at 125 g/ha ([13]; post-emergence, Postemergence, 125 g ai/ha, scale 0 to 100 (0 no effect, 100 complete control), read-out: Corn plant response rating) | Corn plant response rating (crop injury, 0 = no effect, 100 = complete kill) at 500 g/ha ([13]; post-emergence, Postemergence, 500 g ai/ha, scale 0 to 100) | Corn plant response rating (crop injury, 0 = no effect, 100 = complete kill) at 125 g/ha ([13]; pre-emergence, Preemergence, 125 g ai/ha, scale 0 to 100 (0 no effect, 100 complete control)) | plant injury at 500 g/ha ([13]; pre-emergence, Preemergence, 500 g ai/ha, scale 0 to 100 (0 no effect, 100 complete control), read-out: Corn plant response rating) | pest or weed control at 125 g/ha ([14]; post-emergence, Postemergence, scale 0 to 100 (0 no effect, 100 complete control), read-out: Foxtail, Giant plant response rating) | pest or weed control at 125 g/ha ([14]; pre-emergence, Preemergence, scale 0 to 100 (0 no effect, 100 complete control), read-out: Plant response rating, Foxtail, Giant) | pest or weed control at 500 g/ha ([14]; pre-emergence, Preemergence, scale 0 to 100 (0 no effect, 100 complete control), read-out: Foxtail, Giant plant response rating) | pest or weed control at 125 g/ha ([15]; post-emergence, Postemergence, scale 0 to 100 (0 no effect, 100 complete control), read-out: Surinam Grass plant response rating) | pest or weed control at 125 g/ha ([15]; pre-emergence, Preemergence, scale 0 to 100 (0 no effect, 100 complete control), read-out: Plant response rating, Surinam Grass) | pest or weed control at 500 g/ha ([15]; pre-emergence, Preemergence, scale 0 to 100 (0 no effect, 100 complete control), read-out: Surinam Grass plant response rating) | pest or weed control at 125 g/ha ([16]; pre-emergence, Preemergence, scale 0 to 100 (0 no effect, 100 complete control), read-out: Plant response rating, Lambsquarters) | pest or weed control at 125 g/ha ([17]; pre-emergence, Preemergence, scale 0 to 100 (0 no effect, 100 complete control), read-out: Plant response rating, Cocklebur)
40%: pest or weed control at 125 g/ha ([7]; post-emergence, Postemergence, scale 0 to 100 (0 no effect, 100 complete control), read-out: Velvetleaf plant response rating) | pest or weed control at 125 g/ha ([11]; post-emergence, Postemergence, scale 0 to 100 (0 no effect, 100 complete control), read-out: Morningglory plant response rating)
90%: pest or weed control at 500 g/ha ([17]; post-emergence, Postemergence, scale 0 to 100, read-out: Plant response rating, Cocklebur)
30%: pest or weed control at 1000 g/ha [5] | pest or weed control at 125 g/ha ([9]; post-emergence, Postemergence, scale 0 to 100 (0 no effect, 100 complete control), read-out: Pigweed plant response rating) | pest or weed control at 500 g/ha ([16]; pre-emergence, Preemergence, scale 0 to 100 (0 no effect, 100 complete control), read-out: Lambsquarters plant response rating) | pest or weed control at 125 g/ha ([17]; post-emergence, Postemergence, scale 0 to 100 (0 no effect, 100 complete control), read-out: Cocklebur plant response rating)
10%: pest or weed control at 125 g/ha ([1]; 125 g ai/ha, scale 0 to 100 (0 no effect, 100 complete control), read-out: Oat, Wild plant response rating) | pest or weed control at 500 g/ha ([1]; 500 g ai/ha, scale 0 to 100, read-out: Plant response rating, Oat, Wild) | pest or weed control at 500 g/ha ([2]; 500 g ai/ha, scale 0 to 100, read-out: Plant response rating, Blackgrass) | pest or weed control at 500 g/ha ([11]; pre-emergence, Preemergence, scale 0 to 100 (0 no effect, 100 complete control), read-out: Morningglory plant response rating) | pest or weed control at 500 g/ha ([14]; post-emergence, Postemergence, scale 0 to 100, read-out: Plant response rating, Foxtail, Giant) | pest or weed control at 500 g/ha ([15]; post-emergence, Postemergence, scale 0 to 100, read-out: Plant response rating, Surinam Grass) | pest or weed control at 500 g/ha ([17]; pre-emergence, Preemergence, scale 0 to 100 (0 no effect, 100 complete control), read-out: Cocklebur plant response rating)
20%: pest or weed control at 500 g/ha ([7]; pre-emergence, Preemergence, scale 0 to 100 (0 no effect, 100 complete control), read-out: Velvetleaf plant response rating) | plant injury at 500 g/ha ([8]; post-emergence, Postemergence, scale 0 to 100, read-out: Plant response rating, Wheat) | pest or weed control at 500 g/ha ([9]; pre-emergence, Preemergence, scale 0 to 100 (0 no effect, 100 complete control), read-out: Pigweed plant response rating)
70%: pest or weed control at 500 g/ha ([7]; post-emergence, Postemergence, scale 0 to 100, read-out: Plant response rating, Velvetleaf) | pest or weed control at 500 g/ha ([9]; post-emergence, Postemergence, scale 0 to 100, read-out: Plant response rating, Pigweed) | pest or weed control at 500 g/ha ([11]; post-emergence, Postemergence, scale 0 to 100, read-out: Plant response rating, Morningglory) | pest or weed control at 125 g/ha ([16]; post-emergence, Postemergence, scale 0 to 100 (0 no effect, 100 complete control), read-out: Lambsquarters plant response rating)
